Source: PubChem BioAssay (NCI)
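Compound exposure: 48 hours, 5 concentrations, 96-well plates. The concentration for full growth arrest is given as TGI.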

How the values were obtained:
Test in all cases: DTP human tumour cell line panel, 48 h
SW-620 colon = system: SW-620 colon
MOLT-4 leukemia = system: MOLT-4 leukemia
SN12C renal = system: SN12C renal
HT29 colon = system: HT29 colon
T-47D breast = system: T-47D breast
ACHN renal = system: ACHN renal
MDA-MB-231 breast = system: MDA-MB-231 breast
OVCAR-5 ovarian = system: OVCAR-5 ovarian
NCI-H522 lung = system: NCI-H522 lung
UO-31 renal = system: UO-31 renal
SF-539 CNS = system: SF-539 CNS
MDA-N = system: MDA-N
MCF7 breast = system: MCF7 breast
UACC-257 melanoma = system: UACC-257 melanoma
MALME-3M melanoma = system: MALME-3M melanoma
HOP-62 NSCLC = system: HOP-62 NSCLC
U251 CNS = system: U251 CNS
SK-OV-3 ovarian = system: SK-OV-3 ovarian
A498 renal = system: A498 renal
NCI-H23 lung = system: NCI-H23 lung

Structure (SMILES)	TGI (SW-620 colon) [µM]	TGI (MOLT-4 leukemia) [µM]	TGI (SN12C renal) [µM]	TGI (HT29 colon) [µM]	TGI (T-47D breast) [µM]	TGI (ACHN renal) [µM]	TGI (MDA-MB-231 breast) [µM]	TGI (OVCAR-5 ovarian) [µM]	TGI (NCI-H522 lung) [µM]	TGI (UO-31 renal) [µM]	TGI (SF-539 CNS) [µM]	TGI (MDA-N) [µM]	TGI (MCF7 breast) [µM]	TGI (UACC-257 melanoma) [µM]	TGI (MALME-3M melanoma) [µM]	TGI (HOP-62 NSCLC) [µM]	TGI (U251 CNS) [µM]	TGI (SK-OV-3 ovarian) [µM]	TGI (A498 renal) [µM]	TGI (NCI-H23 lung) [µM]
COC(=O)C(Cc1ccccc1)NP(=O)(O)OCC1OC(n2cc(Br)c(=O)[nH]c2=O)CC1O (centres undefined)	> 100	> 100	> 100	> 100	> 100	> 100	> 100	> 100	> 100	> 100	> 100	> 100	> 100	> 100	> 100	> 100	> 100	> 100	> 100	> 100
COc1ccc(OC)c(-c2nc3n(c2/C=C2/C(=O)Nc4ccccc42)CCS3)c1	> 100	78.2	> 100	> 100	> 100	> 100	92.3	> 100	> 100	> 100	> 100	44.7	> 100	> 100	> 100	> 100	> 100	> 100	> 100	> 100
O=C1C(N2CCN(c3ccccn3)CC2)=C(Cl)C(=O)c2ncccc21	2.78	5.99	3.22	> 6.16	4.09	4.91	> 7.14	> 10	1.03	> 5.53	> 10	3.08	3.64	> 5.88	2.75	> 10	> 10	> 10	> 10	3.68
CN(CCNC(=O)c1nn(-c2ccccc2)c2c1Cc1ccccc1-2)CCNC(=O)c1nn(-c2ccccc2)c2c1Cc1ccccc1-2	3.09	11	3.61	3.73	> 22.5	3.44	3.39	6.8	3.15	3.22	4.11	3.16	3.19	3.42	3.34	3.6	3.09	4.31	3.36	3.7
N=C(N)C1CN(CCCCCCCCCCN2CC(C(=N)N)C(=O)NC2=O)C(=O)NC1=O (centres undefined)	> 10	> 10	> 10	> 10	> 10	> 10	> 10	> 10	> 10		> 10	> 10	> 10	> 10	> 10	> 10	> 10	> 10	> 10	> 10
